Experimental findings from US20240158370A1, “CK1 alpha AND DUAL CK1 alpha / GSPT1 DEGRADING COMPOUNDS” (Innovo Therapeutics, Inc., priority 2022, published 2024) are described below.

SMILES strings stand for the structures.

The target of assay [1] is T1, CK1α (Homo sapiens, UniProt P48729+Q96SW2).
T1 construct: CSNK1A1-HiBit KI HEK293(LgBit) Cells; host or cells: HEK293(LgBit) knock-in cells
Kind of assay: HiBiT degradation assay, CK1α, Procedure A. The assay is classed as cell-based. The settings on record: six hours. The method in brief: (§1)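 Cells in DMEM+10% FBS at 1×10^6 cells/ml were added to pre-spotted compound (10-point dose response, 10 μM to 0.005 μM, 0.1% DMSO) and incubated 6 h at 37° C. Nano-Glo HiBiT lytic reagent was added and luminescence read. DC50 and Ymin came from 4-parameter curve fits.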
For orientation: With HiBiT, luminescence reflects the tagged protein that the partner subunit can reach.

The target in assay [2] is GSPT1 (Homo sapiens, UniProt P15170+Q96SW2). Put plainly: HiBiT degradation assay, GSPT1, Procedure A. Format: cell-based. Details: HiBit-GSPT1 KI HEK293(LgBit) Cells; host or cells: HEK293(LgBit) knock-in cells. The following applies: six hours. The procedure, abridged: as §1
Chain of GSPT1 (P15170 whole entry): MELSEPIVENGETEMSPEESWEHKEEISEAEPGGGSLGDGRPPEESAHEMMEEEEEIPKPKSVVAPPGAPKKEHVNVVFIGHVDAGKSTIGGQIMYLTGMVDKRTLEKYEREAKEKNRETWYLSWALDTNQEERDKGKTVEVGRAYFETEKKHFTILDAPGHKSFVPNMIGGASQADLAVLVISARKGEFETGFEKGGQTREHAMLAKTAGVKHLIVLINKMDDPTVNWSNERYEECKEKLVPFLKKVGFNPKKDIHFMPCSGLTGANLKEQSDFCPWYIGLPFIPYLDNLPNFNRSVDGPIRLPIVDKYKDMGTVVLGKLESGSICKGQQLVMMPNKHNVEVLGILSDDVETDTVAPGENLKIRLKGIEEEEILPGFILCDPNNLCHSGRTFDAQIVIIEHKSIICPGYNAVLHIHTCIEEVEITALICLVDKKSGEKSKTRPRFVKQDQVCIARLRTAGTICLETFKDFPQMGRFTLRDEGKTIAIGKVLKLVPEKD
Chain of GSPT1 (Q96SW2 whole entry): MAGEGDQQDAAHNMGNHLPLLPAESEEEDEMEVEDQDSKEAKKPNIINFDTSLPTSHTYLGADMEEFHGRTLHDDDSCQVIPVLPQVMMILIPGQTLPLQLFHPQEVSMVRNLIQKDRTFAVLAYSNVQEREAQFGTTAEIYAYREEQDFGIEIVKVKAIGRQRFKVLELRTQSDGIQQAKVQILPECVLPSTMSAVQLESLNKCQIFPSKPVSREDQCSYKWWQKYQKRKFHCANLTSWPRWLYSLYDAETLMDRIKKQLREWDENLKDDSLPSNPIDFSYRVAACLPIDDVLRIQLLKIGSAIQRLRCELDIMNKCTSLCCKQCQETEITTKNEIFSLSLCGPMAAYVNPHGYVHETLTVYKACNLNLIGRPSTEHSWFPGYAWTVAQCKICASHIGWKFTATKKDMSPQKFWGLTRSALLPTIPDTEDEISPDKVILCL
Chain of GSPT1 (Q16531 whole entry partner): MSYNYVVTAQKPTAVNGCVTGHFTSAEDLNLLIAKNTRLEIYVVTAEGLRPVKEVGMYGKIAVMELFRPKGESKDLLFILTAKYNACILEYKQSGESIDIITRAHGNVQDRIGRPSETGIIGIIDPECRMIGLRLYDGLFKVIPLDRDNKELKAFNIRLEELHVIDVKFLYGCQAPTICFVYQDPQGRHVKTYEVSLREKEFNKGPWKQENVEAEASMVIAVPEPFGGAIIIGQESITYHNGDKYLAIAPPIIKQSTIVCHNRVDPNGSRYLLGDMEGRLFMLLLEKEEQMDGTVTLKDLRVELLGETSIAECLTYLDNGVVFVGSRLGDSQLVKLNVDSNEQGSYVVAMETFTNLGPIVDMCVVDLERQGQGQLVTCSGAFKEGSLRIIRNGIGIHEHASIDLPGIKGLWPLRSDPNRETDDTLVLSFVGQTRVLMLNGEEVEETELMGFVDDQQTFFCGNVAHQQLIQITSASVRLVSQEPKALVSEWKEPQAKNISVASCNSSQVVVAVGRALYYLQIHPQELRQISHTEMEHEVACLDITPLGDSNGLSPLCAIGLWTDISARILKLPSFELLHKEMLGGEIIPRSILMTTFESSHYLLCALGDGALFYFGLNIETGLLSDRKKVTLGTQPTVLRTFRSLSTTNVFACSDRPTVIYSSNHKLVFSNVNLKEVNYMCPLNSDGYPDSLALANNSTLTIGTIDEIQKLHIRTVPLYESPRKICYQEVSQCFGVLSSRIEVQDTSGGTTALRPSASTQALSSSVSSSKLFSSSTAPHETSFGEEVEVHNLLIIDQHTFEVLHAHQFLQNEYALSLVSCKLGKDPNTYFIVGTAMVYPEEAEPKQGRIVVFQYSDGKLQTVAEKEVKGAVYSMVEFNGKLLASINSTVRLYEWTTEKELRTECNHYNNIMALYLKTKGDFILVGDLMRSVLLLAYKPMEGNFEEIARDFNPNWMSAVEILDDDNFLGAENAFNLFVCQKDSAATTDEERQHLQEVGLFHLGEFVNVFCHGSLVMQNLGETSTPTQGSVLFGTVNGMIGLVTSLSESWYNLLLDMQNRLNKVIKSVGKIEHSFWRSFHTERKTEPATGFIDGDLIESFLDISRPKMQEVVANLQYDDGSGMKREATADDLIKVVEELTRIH

T1 sequence (P48729 whole entry): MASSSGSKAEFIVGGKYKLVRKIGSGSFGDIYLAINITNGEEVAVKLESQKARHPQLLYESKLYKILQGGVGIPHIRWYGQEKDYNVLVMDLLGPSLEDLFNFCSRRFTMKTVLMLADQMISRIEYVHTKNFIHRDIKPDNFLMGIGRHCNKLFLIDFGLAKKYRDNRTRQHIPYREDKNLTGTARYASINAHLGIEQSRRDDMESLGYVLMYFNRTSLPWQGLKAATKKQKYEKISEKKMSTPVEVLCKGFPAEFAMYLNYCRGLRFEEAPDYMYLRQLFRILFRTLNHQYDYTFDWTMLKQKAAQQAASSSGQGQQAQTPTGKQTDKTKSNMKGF
T1 sequence (Q96SW2 whole entry): as the sequence (Q96SW2 whole entry) above
T1 sequence (Q16531 whole entry partner): as the sequence (Q16531 whole entry partner) above

The DC50 is the concentration at which degradation of the target reaches its halfway point. Higher therefore signals degradation only at high concentration. In the case of `CCCCCCc1ccc(-c2nc(-c3ccc4c(c3)CN(C3CCC(=O)NC3=O)C4=O)cn2C)cc1` (stereo not shown) [Example 575], in assay [1], the “CK1α Ymin” value was “D (D = >10- 25% remaining)” and the DC50 was less than 25 nM. In addition, in assay [2], the DC50 was no less than 25 nM and the “GSPT1 Ymin” value is on record as “F (F = >75-100% remaining)”.
`Cc1cc(C)cc(-c2nc(-c3ccc4c(c3)CN(C3CCC(=O)NC3=O)C4=O)cn2C)c1` (stereo not shown) [Example 576]: in assay [1], the “CK1α Ymin” value was “C (C = 0-10% remaining)” and the DC50 is less than 25 nM. In addition, in assay [2], the DC50 was less than 25 nM and the “GSPT1 Ymin” value is reported as “F (F = >75-100% remaining)”.
For `CCCCc1ccc(-c2nc(-c3ccc4c(c3)CN(C3CCC(=O)NC3=O)C4=O)cn2C)cc1` (stereo not shown) [Example 577], in assay [1], the “CK1α Ymin” value is “C (C = 0-10% remaining)” and the 50% degradation concentration (DC50) is less than 25 nM. In addition, in assay [2], the 50% degradation concentration (DC50) was less than 25 nM and the “GSPT1 Ymin” value is listed as “E (E = >25-75% remaining)”.
Turning to `COc1cccc(-c2nc(-c3ccc4c(c3)CN(C3CCC(=O)NC3=O)C4=O)cn2C)c1` (stereo not shown) [Example 578], in assay [1], the “CK1α Ymin” value is listed as “C (C = 0-10% remaining)” and the 50% degradation concentration (DC50) was less than 25 nM. For the same compound, in assay [2], the DC50 was less than 25 nM and the “GSPT1 Ymin” value was “E (E = >25-75% remaining)”.
For `COc1cc(-c2nc(-c3ccc4c(c3)CN(C3CCC(=O)NC3=O)C4=O)cn2C)ccc1Cl` (stereo not shown) [Example 579], in assay [1], the “CK1α Ymin” value is recorded as “C (C = 0-10% remaining)” and the DC50 was less than 25 nM. Besides, in assay [2], the DC50 was less than 25 nM and the “GSPT1 Ymin” value is given as “F (F = >75-100% remaining)”.
For `Cn1cc(-c2ccc3c(c2)CN(C2CCC(=O)NC2=O)C3=O)nc1-c1cccc(OC2CC2)c1` (stereo not shown) [Example 580], in assay [1], the “CK1α Ymin” value was “C (C = 0-10% remaining)” and the DC50 is less than 25 nM. In assay [2], the half-maximal degradation concentration (DC50) was no less than 25 nM and the “GSPT1 Ymin” value is recorded as “F (F = >75-100% remaining)”.
The matching figures for `Cn1cc(-c2ccc3c(c2)CN(C2CCC(=O)NC2=O)C3=O)nc1-c1ccc(OC2CC2)cc1` (stereo not shown) [Example 581]: “C (C = 0-10% remaining)”, less than 25 nM, less than 25 nM and “F (F = >75-100% remaining)”.
As to `Cn1cc(-c2ccc3c(c2)CN(C2CCC(=O)NC2=O)C3=O)nc1-c1ccc(C2CCCCC2)cc1` (stereo not shown) [Example 582], in assay [1], the “CK1α Ymin” value was “C (C = 0-10% remaining)” and the 50% degradation concentration (DC50) is less than 25 nM. Besides, in assay [2], the DC50 was less than 25 nM and the “GSPT1 Ymin” value is “F (F = >75-100% remaining)”.
On to `COc1cc(-c2nc(-c3ccc4c(c3)CN(C3CCC(=O)NC3=O)C4=O)cn2C)ccc1F` (stereo not shown) [Example 583], for which, in assay [1], the “CK1α Ymin” value is given as “C (C = 0-10% remaining)” and the DC50 was less than 25 nM. Moreover, in assay [2], the 50% degradation concentration (DC50) is less than 25 nM and the “GSPT1 Ymin” value is listed as “F (F = >75-100% remaining)”.
Consider `COc1ccc(-c2nc(-c3ccc4c(c3)CN(C3CCC(=O)NC3=O)C4=O)cn2C)cc1Cl` (stereo not shown) [Example 584], for which, in assay [1], the “CK1α Ymin” value was “C (C = 0-10% remaining)” and the DC50 was less than 25 nM. In assay [2], the DC50 is no less than 25 nM and the “GSPT1 Ymin” value was “F (F = >75-100% remaining)”.
For `Cn1cc(-c2ccc3c(c2)CN(C2CCC(=O)NC2=O)C3=O)nc1-c1ccn2ccnc2c1` (stereo not shown) [Example 585], in that order: “D (D = >10- 25% remaining)”, no less than 25 nM, less than 25 nM and “F (F = >75-100% remaining)”.
Regarding `Cn1cc(-c2ccc3c(c2)CN(C2CCC(=O)NC2=O)C3=O)nc1-c1cc(F)cc(Cl)c1` (stereo not shown) [Example 586], in assay [1], the “CK1α Ymin” value is listed as “C (C = 0-10% remaining)” and the DC50 was less than 25 nM. In assay [2], the DC50 was no less than 25 nM and the “GSPT1 Ymin” value was “F (F = >75-100% remaining)”.
For `Cn1cc(-c2ccc3c(c2)CN(C2CCC(=O)NC2=O)C3=O)nc1-c1ccc(C(F)F)cc1` (stereo not shown) [Example 587], in that order: “C (C = 0-10% remaining)”, less than 25 nM, no less than 25 nM and “F (F = >75-100% remaining)”.
For `Cn1ncc(-c2ccc3c(c2)CN(C2CCC(=O)NC2=O)C3=O)c1C1=CCCCC1` (stereo not shown) [Example 589], in that order: “E (E = >25-75% remaining)”, less than 25 nM, no less than 25 nM and “F (F = >75-100% remaining)”.
Regarding `CN1CCC(c2c(-c3ccc4c(c3)CN(C3CCC(=O)NC3=O)C4=O)cnn2C)CC1` (stereo not shown) [Example 590], in assay [1], the “CK1α Ymin” value is recorded as “E (E = >25-75% remaining)” and the half-maximal degradation concentration (DC50) is no less than 25 nM. Also, in assay [2], the DC50 was no less than 25 nM and the “GSPT1 Ymin” value was “F (F = >75-100% remaining)”.
As for `CN1CC=C(c2c(-c3ccc4c(c3)CN(C3CCC(=O)NC3=O)C4=O)cnn2C)CC1` (stereo not shown) [Example 591], in assay [1], the “CK1α Ymin” value was “E (E = >25-75% remaining)” and the DC50 is no less than 25 nM. For the same compound, in assay [2], the DC50 is less than 25 nM and the “GSPT1 Ymin” value is on record as “F (F = >75-100% remaining)”.
For `Cn1ncc(-c2ccc3c(c2)CN(C2CCC(=O)NC2=O)C3=O)c1C1CCOC1` (stereo not shown) [Example 592], in that order: “E (E = >25-75% remaining)”, no less than 25 nM, no less than 25 nM and “F (F = >75-100% remaining)”.
For `Cn1ncc(-c2ccc3c(c2)CN(C2CCC(=O)NC2=O)C3=O)c1C1=CCOC1` (stereo not shown) [Example 593], in that order: “E (E = >25-75% remaining)”, no less than 25 nM, no less than 25 nM and “F (F = >75-100% remaining)”.
On to `Cn1cnc(-c2ccc3c(c2)CN(C2CCC(=O)NC2=O)C3=O)c1C1=CCCCC1` (stereo not shown) [Example 595], for which, in assay [1], the “CK1α Ymin” value is recorded as “D (D = >10- 25% remaining)” and the DC50 was less than 25 nM. For the same compound, in assay [2], the 50% degradation concentration (DC50) was no less than 25 nM and the “GSPT1 Ymin” value was “F (F = >75-100% remaining)”.
Regarding `CN1CC=C(c2c(-c3ccc4c(c3)CN(C3CCC(=O)NC3=O)C4=O)ncn2C)CC1` (stereo not shown) [Example 596], in assay [1], the “CK1α Ymin” value is “C (C = 0-10% remaining)” and the DC50 is no less than 25 nM. In addition, in assay [2], the DC50 is no less than 25 nM and the “GSPT1 Ymin” value was “F (F = >75-100% remaining)”.
Consider `Cn1cnc(-c2ccc3c(c2)CN(C2CCC(=O)NC2=O)C3=O)c1C1CCOC1` (stereo not shown) [Example 597], for which, in assay [1], the “CK1α Ymin” value is reported as “E (E = >25-75% remaining)” and the DC50 was no less than 25 nM. Also, in assay [2], the DC50 is no less than 25 nM and the “GSPT1 Ymin” value is reported as “F (F = >75-100% remaining)”.
With `Cn1cnc(-c2ccc3c(c2)CN(C2CCC(=O)NC2=O)C3=O)c1C1=CCOC1` (stereo not shown) [Example 598], in assay [1], the “CK1α Ymin” value is recorded as “D (D = >10- 25% remaining)” and the DC50 is less than 25 nM. Further, in assay [2], the DC50 is no less than 25 nM and the “GSPT1 Ymin” value was “E (E = >25-75% remaining)”.
For `Cn1nc(-c2ccc3c(c2)CN(C2CCC(=O)NC2=O)C3=O)nc1C1CCOCC1` (stereo not shown) [Example 599, 3-(5-(1-methyl-5-(tetrahydro-2H-pyran-4-yl)-1H-1,2,4-triazol-3-yl)-1-oxoisoindolin-2-yl)piperidine-2,6-dione], in that order: “E (E = >25-75% remaining)”, less than 25 nM, no less than 25 nM and “F (F = >75-100% remaining)”.
For `CC1CCN(c2nc(-c3ccc4c(c3)CN(C3CCC(=O)NC3=O)C4=O)nn2C)CC1` (stereo not shown) [Example 600, 3-(5-(1-methyl-5-(4-methylpiperidin-1-yl)-1H-1,2,4-triazol-3-yl)-1-oxoisoindolin-2-yl)piperidine-2,6-dione], in that order: “D (D = >10- 25% remaining)”, less than 25 nM, no less than 25 nM and “F (F = >75-100% remaining)”.
For `Cn1nc(-c2ccc3c(c2)CN(C2CCC(=O)NC2=O)C3=O)nc1N1CCc2ccccc2C1` (stereo not shown) [Example 603, 3-(5-(5-(3,4-dihydroisoquinolin-2 (1H)-yl)-1-methyl-1H-1,2,4-triazol-3-yl)-1-oxoisoindolin-2-yl)piperidine-2,6-dione], in that order: “D (D = >10- 25% remaining)”, less than 25 nM, no less than 25 nM and “F (F = >75-100% remaining)”.
As for `Cn1c(C2CCOCC2)nc(-c2ccc3c(c2)CN(C2CCC(=O)NC2=O)C3=O)c1C1CC1` (stereo not shown) [Example 604, 3-(5-(5-cyclopropyl-1-methyl-2-(tetrahydro-2H-pyran-4-yl)-1H-imidazol-4-yl)-1-oxoisoindolin-2-yl)piperidine-2,6-dione], in assay [1], the “CK1α Ymin” value was “C (C = 0-10% remaining)” and the DC50 was less than 25 nM. Further, in assay [2], the DC50 is no less than 25 nM and the “GSPT1 Ymin” value was “F (F = >75-100% remaining)”.
For the compound `Cn1nc(-c2ccc3c(c2)CN(C2CCC(=O)NC2=O)C3=O)nc1C1CCC(C)(C)CC1` (stereo not shown) [Example 605, 3-(5-(5-(4,4-dimethylcyclohexyl)-1-methyl-1H-1,2,4-triazol-3-yl)-1-oxoisoindolin-2-yl)piperidine-2,6-dione], in assay [1], the “CK1α Ymin” value is reported as “E (E = >25-75% remaining)” and the DC50 is less than 25 nM. In addition, in assay [2], the DC50 is no less than 25 nM and the “GSPT1 Ymin” value was “F (F = >75-100% remaining)”.
As for `O=C1CCC(N2Cc3cc(-n4cncc4-c4ccccc4)ccc3C2=O)C(=O)N1` (stereo not shown) [Example 607, 3-(1-oxo-5-(5-phenyl-1H-imidazol-1-yl)isoindolin-2-yl)piperidine-2,6-dione], in assay [1], the “CK1α Ymin” value was “E (E = >25-75% remaining)” and the DC50 is no less than 25 nM. In assay [2], the DC50 is no less than 25 nM and the “GSPT1 Ymin” value is “F (F = >75-100% remaining)”.
